According to US10799505B2, “Crystalline form of (S)-N-(5-((R)-2-(2,5-difluorophenyl)-pyrrolidin-1-yl)-pyrazolo[1,5-A]pyrimidin-3-yl)-3-hydroxypyrrolidine-1-carboxamide hydrogen sulfate” (Array BioPharma, Inc., priority 2014, dated 2020):
Structures can show the parent of a compound that is named as a salt.

Tests used:
[1] = test system: CUTO-3F lung adenocarcinoma cells harboring MPRIP-NTRK1 fusion; assay: Cell proliferation assay (Cell Titer 96 MTS), CUTO-3F; assay type: cell-based; conditions: Homo sapiens, 72 h, read-out: IC50, cell proliferation
Procedure: (§3) The KM12 cell line is a colorectal cancer cell line harboring the TPM3-NTRK1 fusion (Vaishnavi et al., Nature Med. 19:1469-1472, 2013). The MO-91 cell line is derived from an acute myeloid leukemia patient harboring the ETV6-NTRK3 fusion (Taipale et al., Nature Biotech. 31:630-637, 2013).
(§4) All proliferation assays were performed in media supplemented with 5% FBS as previously described using Cell Titer 96 MTS (Promega) (Bouhana et al., EORTC-NCI-AACR 26th Symposium on Molecular Targets and Cancer Therapeutics, Barcelona, Spain 2014). Cells were seeded 500-2000 cells/well and treated for 72 hours at the drug concentrations described on each graph. Each assay was performed in triplicate in at least 3 independent biological replicates. Data were plotted and IC50 values calculated using GraphPad software.

[2] = test system: KM12 colorectal cancer cells harboring TPM3-NTRK1 fusion; assay: Cell proliferation assay (Cell Titer 96 MTS), KM12; assay type: cell-based; conditions: Homo sapiens, KM12, 72 h, read-out: IC50, cell proliferation
Procedure: as §3, §4

[3] = test system: MO-91 acute myeloid leukemia cells harboring ETV6-NTRK3 fusion; assay: Cell proliferation assay (Cell Titer 96 MTS), MO-91; assay type: cell-based; conditions: Homo sapiens, MO-91, 72 h, read-out: IC50, cell proliferation
Procedure: as §3, §4

[4] = test system: MPRIP-TRKA oncoprotein and ERK1/2; assay: Immunoblot of phosphorylation in CUTO-3F cells; assay type: cell-based, human; conditions: low doses, 2 hours
Source text: (§1) Briefly, cells were lysed in RIPA buffer with Halt Protease and Phosphatase Inhibitor Cocktail (Thermo Scientific) and diluted in loading buffer (LI-COR Biosciences). The membranes were scanned and analyzed using the Odyssey Imaging System and software (LI-COR). The following antibodies were used from Cell Signaling: pTRK Y490 (rabbit polyclonal, #9141), pERK1/2 XP T202/Y204 (#9101), total ERK1/2, pAKT S473 (rabbit mAb, #4060), and total AKT mouse clone D3A7 (#2920). TRK (C-14) rabbit polyclonal antibody was purchased from Santa Cruz Biotechnology. GAPDH (MAB374) and pTYR (4G10) are from Millipore.

[5] = test system: TPM3-TRKA, pAKT, and pERK1/2; assay: Immunoblot of phosphorylation in KM12 cells; assay type: cell-based, human; conditions: low doses, 2 hours
Source text: as §1

[6] = test system: TEL-TRKC oncoprotein, pAKT, and pERK1/2; assay: Immunoblot of phosphorylation in MO-91 cells; assay type: cell-based, human; conditions: low doses, 2 hours
Source text: as §1

[7] = test system: TRKA-SHC1 complexes; assay: TRK-SHC1 proximity ligation assay in CUTO-3 cells; assay type: cell-based, human; conditions: 100 nM, 2 hours, vs DMSO
Procedure: Cells were seeded onto glass coverslips (in a 48 well plate) or chamber slides at 25-75 k cells/well. Cells were treated with the indicated doses and times then fixed for 15 minutes by shaking at room temperature in 4% paraformaldehyde. The cells were rinsed twice in PBS, and then the Duolink® in situ PLA® kit from SigmaAldrich in mouse/rabbit (Red) was used according to the manufacturer's protocol (catalog # DUO92101). The antibody concentrations were optimized using immunofluorescence prior to PLA experiments. The FFPE tissue PLAs from mice or patients were prepared as described in histology. Additionally, samples were treated with 300 mM glycine for 15 minutes prior to the blocking step, otherwise the assay was performed according to the manufacturer's protocol. The cells were mounted using Prolong® gold anti-fade reagent (with DAPI) and cured overnight prior to imaging. […] The following antibodies were used: TRK (C17F1) and ALK (D5F3) from Cell Signaling, SHC1 from Novus, and Grb2 (610111) from BD.

[8] = test system: undifferentiated sarcoma with LMNA-NTRK1 fusion; assay: Phase 1 trial, patient with undifferentiated sarcoma (case report); assay type: in vivo, human; conditions: one patient
Source text: The patient started cycle 1 day 1 three days later. The patient was seen weekly for pharmacokinetic and safety analysis.

[9] = Phase 1 dose escalation study, pharmacokinetics; assay type: in vivo, human; conditions: oral, patients
[10] = test system: TRKA/B/C; assay: Target inhibition judged from unbound drug levels in Phase 1 study; assay type: in vivo, human; conditions: all dose levels
[11] = test system: solid tumors with NTRK gene fusions; assay: Phase 1 study, tumor response (RECIST 1.1) in patients with NTRK fusions; assay type: in vivo, human
Procedure: Three of the 23 patients harbored NTRK-fusions and were treated at either 100 or 150 mg BID.

[12] = test system: xenograph (human) tumor derived from CUTO-3F cell line; assay: Xenograft tumor growth in mice, CUTO-3F; assay type: in vivo; conditions: CUTO-3F xenograft, 60 or 200 mg/kg daily oral
Source text: (§2) The three different cancer cell lines, the CUTO-3F cell line, the KM12 cell line, and the MO-91 cell line, each express a different Trk gene fusion. […] Following implantation of one of these three different xenograph (human) tumors in mice, the change in the volume of each tumor was monitored.

[13] = test system: xenograph (human) tumor derived from KM12 cell line; assay: Xenograft tumor growth in mice, KM12; assay type: in vivo; conditions: 60 or 200 mg/kg daily oral
Source text: as §2

[14] = test system: xenograph (human) tumor derived from MO-91 cell line; assay: Xenograft tumor growth in mice, MO-91; assay type: in vivo; conditions: MO-91 xenograft, 60 or 200 mg/kg daily oral
Source text: as §2

[15] = Dynamic vapor sorption (DVS-1 system); assay type: physicochemical
Procedure: For the DVS measurement a sample of crystalline form (I-HS) was cycled through changing humidity conditions to determine its hygroscopicity. The sample was analyzed using a Surface Measurement System DVS-1 Dynamic Vapor Sorption System. […] Data was collected in 1 minute intervals. Nitrogen was used as the carrier gas. […] After completion of the sorption cycle, the sample was dried using the same procedure, but all the way down to 0% RH and finally taken back to the starting point of 20% RH. The weight change during the sorption/desorption cycles were plotted, allowing for the hygroscopic nature of the sample to be determined.

[16] = Stability on aluminum slide at 40° Celsius/75% RH; assay type: physicochemical; conditions: I-HS 10 days; HCl after 1 hour; HBr after 2 weeks; mesylate overnight
[17] = Dynamic vapor sorption / humidity exposure (IGAsorp, 25° C.); assay type: physicochemical; conditions: for hygroscopicity: DVS, hydrogen sulfate
Procedure: • 1. The hygroscopicity was studied at 25° C. using an IGAsorp analyzer. • 2. About 15 mg of sample was placed in a tared mesh sample holder at an initial ambient room humidity setting of ˜35%. • 3. A total wet/dry nitrogen flow rate of 250 cc/min is used throughout the study. • 4. […] The maximum time allowed at any one humidity set point was 120 min. The sample was maintained under dry N2 after the cycle was completed. Percent weight gain was calculated based on the dry weight basis.

[18] = Accelerated stability, open vials in LDPE bag, 40° C./75% RH, five weeks; assay type: physicochemical
Procedure: Upon removal from the chamber, the samples were physically characterized by appearance, KF, TGA, DSC, XRD and PLM. The samples were also analyzed by HPLC for chromatographic purity, chiral integrity and potency. Where applicable, the data presented in the stability portion also includes the original T=0 data for comparison purposes. The data can be seen in Tables 25-29 and FIGS. 40-44.

[19] = test system: HCC78 cells expressing SLC34A2-ROS1 fusion protein; conditions: HCC78 cell line
Procedure: as §4

[20] = Phase 1 dose escalation study, safety; conditions: for dose limiting toxicity: one patient
Procedure: In patients with measurable disease, efficacy is assessed per RECIST 1.1 criteria.
Response is measured by RECIST Criteria, version 1.1. Serum is collected for pharmacokinetic analysis on Cycle 1 Day 1 and Day 8. Safety information is collected on all patients and the definition of dose-limiting toxicity applies to adverse events regardless of relationship to investigational product.

[21] = 23 patients, 50 mg QD-150 mg BID

SMILES: O=C(Nc1cnn2ccc(N3CCC[C@@H]3c3cc(F)ccc3F)nc12)N1CC[C@H](O)C1 [crystalline form (I-HS), (S)—N-(5-((R)-2-(2,5-difluorophenyl)-pyrrolidin-1-yl)-pyrazolo[1,5-a]pyrimidin-3-yl)-3-hydroxypyrrolidine-1-carboxamide hydrogen sulfate]
- IC50 [1]: < 100 nM
- IC50 [2]: < 10 nM
- IC50 [3]: < 10 nM
- phosphorylation of MPRIP-TRKA and ERK1/2 [4]: inhibition of phosphorylation
- phosphorylation of TPM3-TRKA, pAKT, pERK1/2 [5]: inhibition of the phorphorylation
- phosphorylation of TEL-TRKC, pAKT, pERK1/2 [6]: inhibition in the phosphorylation
- TRKA-SHC1 complexes (PLA signal) [7]: disruption of TRKA-SHC1 complexes
- response by RECIST 1.1 ([8]; 100 mg twice daily, CT before cycle 2 and cycle 3): partial response
- oxygen saturation on room air ([8]; on treatment, baseline 90% with 5 L supplemental oxygen): 97%
- CA125 tumor marker levels ([8]; over cycle 1): normalized
- exposure versus dose [9]: increased in approximate proportion with dose
- time to maximum plasma concentrations following dosing [9]: 30 to 60 min
- inhibition of TRKA/B/C at peak concentrations [10]: approximately 98%
- response (RECIST 1.1) in three NTRK-fusion patients ([11]; 100 or 150 mg BID): partial response
- tumor decrease ([11]; c-kit-negative GIST, ETV6-NTRK3 fusion, 2 cycles+): 30%
- tumor decrease ([11]; mammary analogue secretory carcinoma, ETV6-NTRK3 fusion, 2 cycles+): 64%
- tumor decrease ([11]; undifferentiated sarcoma, LMNA-NTRK1 fusion, 7 cycles+): 59%
- tumor growth (change in volume) [12]: effectively halt the growth, or decrease the rate of growth
- tumor growth (change in volume) [13]: effectively halt the growth, or decrease the rate of growth
- tumor growth (change in volume) [14]: effectively halt the growth, or decrease the rate of growth
- change in form during DVS (post-DVS XRPD) [15]: no change
- hygroscopicity ([15]; DVS isotherm, FIG. 5): non-hygroscopic
- DVS (outcome) ([15]; HCl: at 50-60% RH): RH No change
- DVS weight gain ([15]; at 80% RH): ~1% gain at 80%
- DVS weight gain ([15]; at 95% RH): A 2% gain at 95%
- increase in mass during sorption cycle ([15]; between 0% and 90% RH): about 1.7%
- Stability at 40° Celsius/75% RH (aluminum slide) [16]: No form change
- hygroscopicity [17]: non-hygroscopic
- hygroscopicity ([17]; listed as Crystalline form (I-HS)): not hygroscopic
- mass gained in DVS ([17]; at 80% RH): 1%
- Appearance ([18]; 40° C./75% RH, 5 wks): Orange Powder
- Assay (HPLC) ([18]; 40° C./75% RH, 5 wks): 79.6%
- Chiral Potency (HPLC) ([18]; 40° C./75% RH, 5 wks): 99.6%
- KF (water content) ([18]; 40° C./75% RH, 5 wks): 0.21 w/w %
- Peak Area Percent, RRT 0.793 ([18]; 40° C./75% RH, 5 wks): 0.07
- Peak Area Percent, RRT 0.863 ([18]; 40° C./75% RH, 5 wks): 0.00
- Peak Area Percent, RRT 0.981 ([18]; 40° C./75% RH, 5 wks): 0.00
- Peak Area Percent, RRT 1.000 ([18]; 40° C./75% RH, 5 wks): 99.93
- Peak Area Percent, RRT 1.535 ([18]; 40° C./75% RH, 5 wks): 0.00
- Total Impurities (HPLC) ([18]; 40° C./75% RH, 5 wks): 0.07%
- change of API chemical purity ([18]; 40° C./75% RH, five weeks): did not change significantly
- Appearance ([18]; time point 0 wks): Orange Powder
- Assay (HPLC) ([18]; time point 0 wks): 79.4%
- Chiral Potency (HPLC) ([18]; time point 0 wks): 99.6%
- KF (water content) ([18]; time point 0 wks): 0.28 w/w %
- Peak Area Percent, RRT 0.793 ([18]; time point 0 wks): 0.07
- Peak Area Percent, RRT 0.863 ([18]; time point 0 wks): 0.00
- Peak Area Percent, RRT 0.981 ([18]; time point 0 wks): 0.00
- Peak Area Percent, RRT 1.000 ([18]; time point 0 wks): 99.86
- Peak Area Percent, RRT 1.535 ([18]; time point 0 wks): 0.07
- Total Impurities (HPLC) ([18]; time point 0 wks): 0.14%
- inhibition of cellular proliferation [19]: did not inhibit
- Grade 1 and 2 anemia, frequency ([20]; 23 patients): 22%
- Grade 1 and 2 dizziness, frequency ([20]; 23 patients): 26%
- Grade 1 and 2 fatigue, frequency ([20]; 23 patients): 35%
- MTD [20, 21]: has not been reached
- tolerability [20, 21]: well tolerated
- dose limiting toxicity ([20]; Dose Level 100 mg BID): delirium, grade 3 unrelated
- dose limiting toxicity ([20]; Dose Level 150 mg BID): elevated AST, grade 3
- adverse events attributed to drug ([20]; sarcoma patient, after four months of dosing): did not have any adverse events
- drug-related adverse events ([20]; sarcoma patient, first 4-week period): No drug-related adverse events were noted
